Tests used:
Hepatotoxicity [1] = experiment: Literature-mined compound from Fourches et al multi-species drug-induced liver injury (DILI) dataset, effect in non-rodents
Hepatotoxicity [2] = experiment: Literature-mined compound from Fourches et al multi-species drug-induced liver injury (DILI) dataset, effect in rodents; settings: rodentia
Hepatotoxicity [3] = experiment: Literature-mined compound from Fourches et al multi-species drug-induced liver injury (DILI) dataset, effect in humans; settings: human

With `CC(C)NNC(=O)c1ccncc1` [IPRONIAZID] the Hepatotoxicity (Hepatotoxicity [1]) was “no drug-induced liver injury reported”, the Hepatotoxicity (Hepatotoxicity [2]) was “drug-induced liver injury reported” and the Hepatotoxicity (Hepatotoxicity [3]) was “drug-induced liver injury reported”.

In the case of `CCCCC1=NC2(CCCC2)C(=O)N1Cc1ccc(-c2ccccc2-c2nnn[nH]2)cc1` [IRBESARTAN], the Hepatotoxicity (Hepatotoxicity [1]) is reported as “no drug-induced liver injury reported”, the Hepatotoxicity (Hepatotoxicity [2]) is reported as “drug-induced liver injury reported” and the Hepatotoxicity (Hepatotoxicity [3]) is reported as “drug-induced liver injury reported”.

For `CCc1c2c(nc3ccc(OC(=O)N4CCC(N5CCCCC5)CC4)cc13)-c1cc3c(c(=O)n1C2)COC(=O)[C@]3(O)CC` [IRINOTECAN], the Hepatotoxicity (Hepatotoxicity [1]) was “no drug-induced liver injury reported”, the Hepatotoxicity (Hepatotoxicity [2]) was “no drug-induced liver injury reported” and the Hepatotoxicity (Hepatotoxicity [3]) was “drug-induced liver injury reported”.

In the case of `CC(C)Nc1ncccn1.O=P(O)(O)O` [ISAXONINE PHOSPHATE], the Hepatotoxicity (Hepatotoxicity [1]) is reported as “no drug-induced liver injury reported”, the Hepatotoxicity (Hepatotoxicity [2]) is reported as “no drug-induced liver injury reported” and the Hepatotoxicity (Hepatotoxicity [3]) is reported as “drug-induced liver injury reported”.

With `O=c1c(-c2ccccc2)coc2ccccc12` [ISOFLAVONE] the Hepatotoxicity (Hepatotoxicity [1]) was “drug-induced liver injury reported”, the Hepatotoxicity (Hepatotoxicity [2]) was “no drug-induced liver injury reported” and the Hepatotoxicity (Hepatotoxicity [3]) was “no drug-induced liver injury reported”.

For `FC(F)OC(Cl)C(F)(F)F` (stereo unspecified) [ISOFLURANE], the Hepatotoxicity (Hepatotoxicity [1]) was “drug-induced liver injury reported”, the Hepatotoxicity (Hepatotoxicity [2]) was “drug-induced liver injury reported” and the Hepatotoxicity (Hepatotoxicity [3]) was “drug-induced liver injury reported”.

For `NNC(=O)c1ccncc1` [ISONIAZID], the Hepatotoxicity (Hepatotoxicity [1]) was “drug-induced liver injury reported”, the Hepatotoxicity (Hepatotoxicity [2]) was “drug-induced liver injury reported” and the Hepatotoxicity (Hepatotoxicity [3]) was “drug-induced liver injury reported”.

`CC(C)O` [ISOPROPYL ALCOHOL] was tested, and the Hepatotoxicity (Hepatotoxicity [1]) was “no drug-induced liver injury reported”, the Hepatotoxicity (Hepatotoxicity [2]) was “drug-induced liver injury reported” and the Hepatotoxicity (Hepatotoxicity [3]) was “no drug-induced liver injury reported”.

With `CC(C)NCC(O)c1ccc(O)c(O)c1` (stereo unspecified) [ISOPROTERENOL] the Hepatotoxicity (Hepatotoxicity [1]; Liver) was “drug-induced liver injury reported”, the Hepatotoxicity (Hepatotoxicity [2]; Liver) was “drug-induced liver injury reported” and the Hepatotoxicity (Hepatotoxicity [3]; Liver) was “drug-induced liver injury reported”.

For `O=[N+]([O-])O[C@H]1CO[C@H]2[C@@H]1OC[C@H]2O[N+](=O)[O-]` [ISOSORBIDE DINITRATE], the Hepatotoxicity (Hepatotoxicity [1]) was “no drug-induced liver injury reported”, the Hepatotoxicity (Hepatotoxicity [2]) was “drug-induced liver injury reported” and the Hepatotoxicity (Hepatotoxicity [3]) was “drug-induced liver injury reported”.

In the case of `O=[N+]([O-])O[C@@H]1CO[C@H]2[C@@H]1OC[C@@H]2O` [ISOSORBIDE MONONITRATE], the Hepatotoxicity (Hepatotoxicity [1]) is reported as “no drug-induced liver injury reported”, the Hepatotoxicity (Hepatotoxicity [2]) is reported as “no drug-induced liver injury reported” and the Hepatotoxicity (Hepatotoxicity [3]) is reported as “drug-induced liver injury reported”.

For `CC1=C(/C=C/C(C)=C/C=C/C(C)=C\C(=O)O)C(C)(C)CCC1` [ISOTRETINOIN], the Hepatotoxicity (Hepatotoxicity [1]) was “no drug-induced liver injury reported”, the Hepatotoxicity (Hepatotoxicity [2]) was “no drug-induced liver injury reported” and the Hepatotoxicity (Hepatotoxicity [3]) was “drug-induced liver injury reported”.

With `CC(COc1ccccc1)NC(C)C(O)c1ccc(O)cc1` (stereo unspecified) [ISOXSUPRINE] the Hepatotoxicity (Hepatotoxicity [1]) was “no drug-induced liver injury reported”, the Hepatotoxicity (Hepatotoxicity [2]) was “drug-induced liver injury reported” and the Hepatotoxicity (Hepatotoxicity [3]) was “no drug-induced liver injury reported”.

For `COC(=O)C1=C(C)NC(C)=C(C(=O)OC(C)C)C1c1cccc2nonc12` (stereo unspecified) [ISRADIPINE], the Hepatotoxicity (Hepatotoxicity [1]) was “no drug-induced liver injury reported”, the Hepatotoxicity (Hepatotoxicity [2]) was “no drug-induced liver injury reported” and the Hepatotoxicity (Hepatotoxicity [3]) was “drug-induced liver injury reported”.

With `CCC(C)n1ncn(-c2ccc(N3CCN(c4ccc(OCC5COC(Cn6cncn6)(c6ccc(Cl)cc6Cl)O5)cc4)CC3)cc2)c1=O` (stereo unspecified) [ITRACONAZOLE] the Hepatotoxicity (Hepatotoxicity [1]) was “no drug-induced liver injury reported”, the Hepatotoxicity (Hepatotoxicity [2]) was “drug-induced liver injury reported” and the Hepatotoxicity (Hepatotoxicity [3]) was “drug-induced liver injury reported”.

In the case of `C/C(=C\c1csc(C)n1)[C@@H]1C[C@@H]2O[C@]2(C)CCC[C@H](C)[C@H](O)[C@@H](C)C(=O)C(C)(C)[C@@H](O)CC(=O)N1` [IXABEPILONE], the Hepatotoxicity (Hepatotoxicity [1]) is reported as “no drug-induced liver injury reported”, the Hepatotoxicity (Hepatotoxicity [2]) is reported as “no drug-induced liver injury reported” and the Hepatotoxicity (Hepatotoxicity [3]) is reported as “drug-induced liver injury reported”.

With `CNC1(c2ccccc2Cl)CCCCC1=O` (stereo unspecified) [KETAMINE] the Hepatotoxicity (Hepatotoxicity [1]) was “drug-induced liver injury reported”, the Hepatotoxicity (Hepatotoxicity [2]) was “drug-induced liver injury reported” and the Hepatotoxicity (Hepatotoxicity [3]) was “no drug-induced liver injury reported”.

In the case of `O=C(c1ccc(F)cc1)C1CCN(CCn2c(=O)[nH]c3ccccc3c2=O)CC1` [KETANSERIN], the Hepatotoxicity (Hepatotoxicity [1]) is reported as “no drug-induced liver injury reported”, the Hepatotoxicity (Hepatotoxicity [2]) is reported as “drug-induced liver injury reported” and the Hepatotoxicity (Hepatotoxicity [3]) is reported as “drug-induced liver injury reported”.

`CC(=O)N1CCN(c2ccc(OCC3COC(Cn4ccnc4)(c4ccc(Cl)cc4Cl)O3)cc2)CC1` (stereo unspecified) [KETOCONAZOLE] was tested, and the Hepatotoxicity (Hepatotoxicity [1]) was “drug-induced liver injury reported”, the Hepatotoxicity (Hepatotoxicity [2]) was “drug-induced liver injury reported” and the Hepatotoxicity (Hepatotoxicity [3]) was “drug-induced liver injury reported”.

With `CC(C(=O)O)c1cccc(C(=O)c2ccccc2)c1` (stereo unspecified) [KETOPROFEN] the Hepatotoxicity (Hepatotoxicity [1]) was “no drug-induced liver injury reported”, the Hepatotoxicity (Hepatotoxicity [2]) was “no drug-induced liver injury reported” and the Hepatotoxicity (Hepatotoxicity [3]) was “drug-induced liver injury reported”.

With `COc1c2occc2c(OC)c2c(=O)cc(C)oc12` [KHELLIN] the Hepatotoxicity (Hepatotoxicity [1]) was “no drug-induced liver injury reported”, the Hepatotoxicity (Hepatotoxicity [2]) was “drug-induced liver injury reported” and the Hepatotoxicity (Hepatotoxicity [3]) was “no drug-induced liver injury reported”.

For `CC(CCc1ccccc1)NCC(O)c1ccc(O)c(C(N)=O)c1` (stereo unspecified) [LABETALOL], the Hepatotoxicity (Hepatotoxicity [1]) was “no drug-induced liver injury reported”, the Hepatotoxicity (Hepatotoxicity [2]) was “no drug-induced liver injury reported” and the Hepatotoxicity (Hepatotoxicity [3]) was “drug-induced liver injury reported”.

With `CC(O)C(=O)O` (stereo unspecified) [LACTIC ACID] the Hepatotoxicity (Hepatotoxicity [1]) was “drug-induced liver injury reported”, the Hepatotoxicity (Hepatotoxicity [2]) was “drug-induced liver injury reported” and the Hepatotoxicity (Hepatotoxicity [3]) was “drug-induced liver injury reported”.

`OC[C@H]1O[C@@H](O[C@@H]2[C@@H](CO)O[C@](O)(CO)[C@H]2O)[C@H](O)[C@@H](O)[C@H]1O` [LACTULOSE] was tested, and the Hepatotoxicity (Hepatotoxicity [1]) was “no drug-induced liver injury reported”, the Hepatotoxicity (Hepatotoxicity [2]) was “drug-induced liver injury reported” and the Hepatotoxicity (Hepatotoxicity [3]) was “drug-induced liver injury reported”.

For `Nc1ccn([C@@H]2CS[C@H](CO)O2)c(=O)n1` [LAMIVUDINE], the Hepatotoxicity (Hepatotoxicity [1]) was “no drug-induced liver injury reported”, the Hepatotoxicity (Hepatotoxicity [2]) was “drug-induced liver injury reported” and the Hepatotoxicity (Hepatotoxicity [3]) was “drug-induced liver injury reported”.

For `Nc1nnc(-c2cccc(Cl)c2Cl)c(N)n1` [LAMOTRIGINE], the Hepatotoxicity (Hepatotoxicity [1]) was “no drug-induced liver injury reported”, the Hepatotoxicity (Hepatotoxicity [2]) was “no drug-induced liver injury reported” and the Hepatotoxicity (Hepatotoxicity [3]) was “drug-induced liver injury reported”.

`CC(C)[C@@H]1NC(=O)[C@H](CCCCN)NC(=O)[C@@H](Cc2c[nH]c3ccccc23)NC(=O)[C@H](Cc2ccc(O)cc2)NC(=O)[C@@H](NC(=O)[C@H](N)Cc2ccc3ccccc3c2)CSSC[C@@H](C(=O)N[C@H](C(N)=O)[C@@H](C)O)NC1=O` [LANREOTIDE] was tested, and the Hepatotoxicity (Hepatotoxicity [1]) was “no drug-induced liver injury reported”, the Hepatotoxicity (Hepatotoxicity [2]) was “no drug-induced liver injury reported” and the Hepatotoxicity (Hepatotoxicity [3]) was “drug-induced liver injury reported”.

From ChEMBL document CHEMBL1697731, “Cheminformatics analysis of assertions mined from literature that describe drug-induced liver injury in different species” (Chem Res Toxicol, 2010)
